# From PubChem BioAssay (NCI)
#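 Step 1: Grow cells in 96-well plates. Step 2: Expose to compound for 48 hours at 5 concentrations. Step 3: Interpolate endpoints linearly; if unreached, use highest concentration. Abbreviation: GI50, concentration required for 50% inhibition of growth. At the TGI there is no net growth.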
# Key:
# Experiment in all cases: DTP human tumour cell line panel, 48 h
# HCC-2998 colon = test system: HCC-2998 colon
# OVCAR-5 ovarian = test system: OVCAR-5 ovarian
# SK-MEL-5 melanoma = test system: SK-MEL-5 melanoma
# K-562 leukemia = test system: K-562 leukemia
# MDA-MB-231 breast = test system: MDA-MB-231 breast
# COLO 205 colon = test system: COLO 205 colon
# MDA-MB-435 = test system: MDA-MB-435
# MOLT-4 leukemia = test system: MOLT-4 leukemia
# SK-OV-3 ovarian = test system: SK-OV-3 ovarian
# LOX IMVI melanoma = test system: LOX IMVI melanoma
SMILES,TGI (HCC-2998 colon),TGI (OVCAR-5 ovarian),TGI (SK-MEL-5 melanoma),TGI (K-562 leukemia),TGI (MDA-MB-231 breast),TGI (COLO 205 colon),TGI (MDA-MB-435),TGI (MOLT-4 leukemia),TGI (SK-OV-3 ovarian),TGI (LOX IMVI melanoma),GI50 (LOX IMVI melanoma),GI50 (HCC-2998 colon),GI50 (OVCAR-5 ovarian),GI50 (SK-MEL-5 melanoma),GI50 (K-562 leukemia),GI50 (MDA-MB-231 breast),GI50 (COLO 205 colon),GI50 (MDA-MB-435),GI50 (MOLT-4 leukemia),GI50 (SK-OV-3 ovarian)
O=C(O)C(O)C(O)C(O)C(=O)CO (stereo not drawn),> 100 µM,> 100 µM,> 100 µM,> 100 µM,> 100 µM,> 100 µM,> 100 µM,> 100 µM,> 100 µM,> 100 µM,,,,,,,,,,
Nc1ccc(-c2nc3cc(F)ccc3s2)cc1CO,6.17 µM,> 100 µM,> 100 µM,> 100 µM,> 70 µM,> 100 µM,> 100 µM,> 100 µM,49.3 µM,> 100 µM,,,,,,,,,,
O=S(=O)(O)c1cc(N=[N+]([O-])c2cc(S(=O)(=O)O)c3ccccc3c2)cc2ccccc12,> 100 µM,> 100 µM,32.8 µM,> 100 µM,> 100 µM,> 100 µM,> 100 µM,,> 100 µM,60.6 µM,,,,,,,,,,
Cc1ccccc1NC(=O)CC(=O)N1N=C(N2c3ccccc3Sc3ccccc32)CC1c1ccccc1 (stereo not drawn),> 100 µM,> 100 µM,> 100 µM,,,> 100 µM,,> 100 µM,> 100 µM,> 100 µM,,,,,,,,,,
O=C1/C(=C\c2ccc(F)cc2)CCOc2c1ccc1ccccc21,17.7 µM,42.3 µM,47.9 µM,> 31.1 µM,> 47.7 µM,> 100 µM,74.3 µM,> 47.8 µM,> 100 µM,38.4 µM,13 µM,,,,,,,,,
COc1ccc(C2c3cc4c(cc3OC(O)(CO)C2C(=O)O)OCO4)cc1 (stereo not drawn) (tested in a mixture with another compound),38.2 µM,> 100 µM,39.5 µM,40.2 µM,,> 100 µM,,57.8 µM,98.5 µM,30.1 µM,,,,,,,,,,
O=c1[nH]c(Nc2ccc(Cl)cc2)nc2nc[nH]c12,> 100 µM,> 100 µM,> 100 µM,,> 100 µM,> 100 µM,> 100 µM,,> 100 µM,> 100 µM,,,,,,,,,,
C1=CC(=[N+]2N=C(c3ccccc3)CC2c2ccccc2)C=CC1=C1SC(c2ccccc2)(c2ccccc2)c2ccccc21 (stereo not drawn),> 100 µM,> 100 µM,> 100 µM,> 100 µM,> 100 µM,,> 100 µM,> 100 µM,> 100 µM,,,,,,,,,,,
O=C1c2ccccc2C(C2c3ccccc3C(=O)c3cc(Br)ccc32)c2ccc(Br)cc21 (stereo not drawn),> 100 µM,> 100 µM,> 100 µM,> 100 µM,> 100 µM,> 100 µM,> 100 µM,> 100 µM,> 100 µM,> 100 µM,,,,,,,,,,
CC(C)C1OC(=O)/C=C/C=C/C=C/C=C/C=C/CC(O)C(C)C(O)CC(O)CC(O)CC(O)CC(O)CC(O)CC(O)/C=C/C1C (stereo not drawn),> 100 µM,> 100 µM,,> 100 µM,,,> 100 µM,> 100 µM,> 100 µM,,,,,,,,,,,
CSCCC(NC(=O)OCc1ccccc1)P(=O)(O)c1ccccc1 (stereo not drawn),> 100 µM,> 100 µM,> 100 µM,> 100 µM,> 100 µM,> 100 µM,> 100 µM,> 100 µM,> 100 µM,> 100 µM,,,,,,,,,,
CCOC(=O)C(=O)NCCCN1CCOCC1,> 100 µM,> 100 µM,> 100 µM,> 100 µM,,> 100 µM,,> 100 µM,> 100 µM,> 100 µM,,,,,,,,,,
CCCN1C(=O)CSC1=Nc1ccc2cc3ccc(N=C4SCC(=O)N4CCC)cc3nc2c1,> 100 µM,> 100 µM,> 100 µM,> 100 µM,> 100 µM,> 100 µM,> 100 µM,> 100 µM,> 100 µM,> 100 µM,> 100 µM,> 100 µM,> 100 µM,49 µM,52.2 µM,25.1 µM,> 100 µM,> 100 µM,> 100 µM,39.4 µM
C/C(N=Nc1nc2ccccc2[nH]1)=C1/C=CC=CN1O,> 100 µM,> 100 µM,> 100 µM,> 100 µM,> 100 µM,> 100 µM,> 100 µM,> 100 µM,> 100 µM,> 100 µM,,,,,,,,,,
COC(=S)OC1CC(n2cnc3c(N)ncnc32)OC1CO[Si](C)(C)C(C)(C)C (stereo not drawn),,65.4 µM,,> 100 µM,39.9 µM,39.8 µM,42.1 µM,> 100 µM,60.1 µM,> 100 µM,,,,,,,,,,
O=C1CC2(CCC(O)(c3cccs3)C(C(=O)c3cccs3)C2)C(=O)c2ccccc2N1 (stereo not drawn),> 100 µM,> 100 µM,> 100 µM,> 100 µM,> 100 µM,> 100 µM,> 100 µM,> 100 µM,> 100 µM,> 100 µM,,,,,,,,,,
COC1CC(CC2CCC(C)C(C(C)C(=O)O)O2)OC2(OC(C)(C3CCC(C)(C4OC(C5OC(O)(CO)C(C)CC5C)CC4C)O3)CC2C)C1C (stereo not drawn),11.5 µM,69.6 µM,1.83 µM,2.03 µM,46 µM,2.67 µM,11.1 µM,6.13 µM,46.3 µM,9.81 µM,,,,,,,,,,
